Measurements taken from patent US20250064951A1, “DENDRITIC POLYELECTROLYTE ZWITTERIONS, JANUS-TYPE CONJUGATE COMPRISING SAME AND USES THEREOF” (ArtProBio Co., Ltd., priority 2023, published 2025).

How the values were obtained:
[1] = system: BALB/c nude mice; assay: In vivo delivery of EGFP mRNA complex, eGFP imaging by IVIS; settings: subcutaneous injection, 0.1 mg/kg
Protocol: The complex ((+6)2(−6)2_conjugate 2_complex) was subcutaneously injected into BALB/c nude mice at 0.1 mg/kg, and then the expressed eGFP (enhanced green fluorescenct protein) was imaged and quantified with IVIS (in vivo imaging system). As a control group, only EGFP mRNA was used instead of the complex.

[2] = system: HeLa cells; assay: EGFP mRNA complex delivery and eGFP expression in HeLa cells by flow cytometry; assay type: cell-based; settings: complex with EGFP mRNA
Protocol: HeLa cells were subcultured in DMEM supplemented with 10% FBS (fetal bovine serum), dispensed into each well at 1-3×10^4 cells/well, and cultured at 37° C. for 24 hours. The cells were treated with the (+6)2(−6)2_conjugate 2_complex or the (+6)2(−6)2_conjugate 3_complex at a concentration of […], respectively, and incubated at 37° C. for 4 hours. Afterwards, the cells were washed with Dulbecco's phosphate-buffered saline (DPBS), trypsinized, and resuspended in DPBS supplemented with 10% cell dissociation buffer (GIBCO) and 1% FBS. Then, the expressed eGFP (enhanced green fluorescent protein) was analyzed using a flow cytometer (BD LSR II SORT flow cytometer, BD Bioscience, USA).

CCCCCCCCCCCCCCCCCCC[C@H](CCCCNC(=O)CCCCCCCCCCCCCCC)C(=O)NCCCCC(NC(=O)[C@H](CCCCNC(=O)[C@H](CCCCNC(=O)[C@H](CCC(=O)O)NC(=O)[C@H](CCC(=O)O)NC(=O)[C@H](CCC(=O)O)NC(=O)[C@H](CCC(=O)O)NC(=O)[C@H](CCC(=O)O)NC(=O)[C@H](CCC(=O)O)NC(C)=O)NC(=O)[C@H](CCCNC(=N)N)NC(=O)[C@H](CCCNC(=N)N)NC(=O)[C@H](CCCNC(=N)N)NC(=O)[C@H](CCCNC(=N)N)NC(=O)[C@H](CCCNC(=N)N)NC(=O)[C@H](CCCNC(=N)N)NC(C)=O)NC(=O)[C@H](CCCCNC(=O)[C@H](CCC(=O)O)NC(=O)[C@H](CCC(=O)O)NC(=O)[C@H](CCC(=O)O)NC(=O)[C@H](CCC(=O)O)NC(=O)[C@H](CCC(=O)O)NC(=O)[C@H](CCC(=O)O)NC(C)=O)NC(=O)[C@H](CCCNC(=N)N)NC(=O)[C@H](CCCNC(=N)N)NC(=O)[C@H](CCCNC(=N)N)NC(=O)[C@H](CCCNC(=N)N)NC(=O)[C@H](CCCNC(=N)N)NC(=O)[C@H](CCCNC(=N)N)NC(C)=O)C(N)=O (stereo partly drawn) [Example 7]
in vivo mRNA delivery and eGFP protein expression (IVIS) [1]: successfully delivered the mRNA in vivo
delivery of EGFP mRNA into cells ([2]; 16 M or 32 M, 4 hours): successfully delivered the mRNA into the nucleus and cytoplasm of the cells
efficiency of eGFP protein expression from internalized EGFP mRNA ([2]; flow cytometry): 82.9%
